Data published in ChEMBL document CHEMBL5614415, “Recent advances and challenges of revolutionizing drug-resistant tuberculosis treatment” (Eur J Med Chem, 2024).
≈ marks a conversion by molar mass, not a printed value.

Each compound was assayed on Mycobacterium tuberculosis (assay: Antitubercular activity against Multi-drug resistant Mycobacterium tuberculosis assessed as inhibition of bacterial growth incubated for 14 days by broth microdilution method). Settings: 336 h, time 14 day.
Type: functional

| Compound | MIC50 [mg/L] |
| --- | --- |
| COc1ncccc1Nc1cc2nc3ccccc3n(-c3ccc(OC(F)(F)F)cc3)c-2c/c1=N\C1CCC(OC)CC1 (stereo not drawn) | 0.06 (≈ 0.102 µM) |
| CC(C)/N=c1\cc2n(-c3ccc(Cl)cc3)c3ccccc3nc-2cc1Nc1ccc(Cl)cc1 [CLOFAZIMINE] | 0.12 (≈ 0.253 µM) |

What follows are compounds tested on Mycobacterium tuberculosis (assay: Antibacterial activity against fluoroquinolone-resistant Mycobacterium tuberculosis H37Rv assessed as reduction in bacterial growth measured after 16 to 18 hrs by serial dilution method). Settings: time 16-18 hrs.
Type: functional

| Compound | MIC90 [mg/L] |
| --- | --- |
| COc1c(N2CCNC(C)C2)c(F)cc2c(=O)c(C(=O)O)cn(C3CC3)c12 (stereo not drawn) [GATIFLOXACIN] | 0.06 (≈ 0.16 µM) |

Each compound was assayed on Mycobacterium tuberculosis (assay: Antimycobacterial activity against extensively drug resistant Mycobacterium tuberculosis assessed as reduction in microbial growth). Settings: not given.
Type: functional

| Compound | MIC50 [mg/L] |
| --- | --- |
| CCOc1ccc(Br)c2c1B(O)O[C@@H]2CN | 0.4 |
| Cl.NC[C@H]1OB(O)c2c(OCCO)ccc(Cl)c21 | 0.023 |
| COc1ccc(Cl)c2c1B(O)O[C@@H]2CN | 0.1 |
| CCCCOc1ccc(Cl)c2c1B(O)O[C@@H]2CN | 0.6 |
| COc1ccc(Br)c2c1B(O)O[C@@H]2CN | 0.1 |
| NCC1OB(O)c2c(Oc3ccccc3)ccc(Cl)c21 (stereo not drawn) | 5 |
| NC[C@@H]1OB(O)c2c(OCCO)ccc(Cl)c21 | 5 |
| CCCOc1ccc(Br)c2c1B(O)O[C@@H]2CN | 0.38 |
| NCC1OB(O)c2c(OCc3ccccc3)ccc(Cl)c21 (stereo not drawn) | 5 |
| CCOc1ccc(Cl)c2c1B(O)O[C@@H]2CN | 0.3 |
| NC[C@H]1OB(O)c2c(OCCO)ccc(Br)c21 | 0.08 |
| CCCOc1ccc(Cl)c2c1B(O)O[C@@H]2CN | 0.16 |
| NCC1OB(O)c2c(OCCc3ccccc3)ccc(Cl)c21 (stereo not drawn) | 5 |
| CCCCOc1ccc(Br)c2c1B(O)O[C@@H]2CN | 0.45 |
| NC[C@@H]1OB(O)c2c(OCCO)ccc(Br)c21 | 10 |
